# Several values for one entry are separate records, joined by “and”; a condition that tells them apart may be missing. Equal entries are not always repeated.
# Target: T1, Efl1 R1086Q (Saccharomyces cerevisiae, UniProt P53893, R1086Q)
# T1 construct: made in house; host or cells: Saccharomyces cerevisiae
# Assay: Isothermal titration calorimetry (ITC): binding of guanine nucleotides or Sdo1 to Efl1 R1086Q
# Conditions: for Kd / -TΔSb / ΔGb / ΔHb / ΔCpb: guanine nucleotide; for ΔCpb: from ΔHb at 25–35 °C
# How it was run: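 ITC at 25–35 °C in 50 mM Tris-HCl pH 8.0, 150 mM NaCl, 5% glycerol, with 5 mM MgCl2 or 2 mM EDTA; 30–50 µM GTPase in cell, 2–3 mM nucleotide titrated, eight-fold Sdo1 excess for complex. Kb, ΔHb, n from one-site fit; Mg isotherms by ternary coupled-equilibria model.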
# [1] = Effect of Mg^2+, Efl1 R1086Q − Sdo1, 25 °C
# [2] = Effect of Mg^2+, Efl1 R1086Q − Sdo1, 30 °C
# [3] = Effect of Mg^2+, Efl1 R1086Q − Sdo1, 35 °C
# [4] = Effect of Sdo1, Efl1 R1086Q + Mg^2+, 25 °C
# [5] = Effect of Sdo1, Efl1 R1086Q + Mg^2+, 30 °C
# [6] = Effect of Sdo1, Efl1 R1086Q + Mg^2+, 35 °C
# [7] = Effect of Sdo1, Efl1 R1086Q − Mg^2+, 25 °C
# [8] = Effect of Sdo1, Efl1 R1086Q − Mg^2+, 30 °C
# [9] = Effect of Sdo1, Efl1 R1086Q − Mg^2+, 35 °C
# T1 sequence (P53893 whole entry R1086Q): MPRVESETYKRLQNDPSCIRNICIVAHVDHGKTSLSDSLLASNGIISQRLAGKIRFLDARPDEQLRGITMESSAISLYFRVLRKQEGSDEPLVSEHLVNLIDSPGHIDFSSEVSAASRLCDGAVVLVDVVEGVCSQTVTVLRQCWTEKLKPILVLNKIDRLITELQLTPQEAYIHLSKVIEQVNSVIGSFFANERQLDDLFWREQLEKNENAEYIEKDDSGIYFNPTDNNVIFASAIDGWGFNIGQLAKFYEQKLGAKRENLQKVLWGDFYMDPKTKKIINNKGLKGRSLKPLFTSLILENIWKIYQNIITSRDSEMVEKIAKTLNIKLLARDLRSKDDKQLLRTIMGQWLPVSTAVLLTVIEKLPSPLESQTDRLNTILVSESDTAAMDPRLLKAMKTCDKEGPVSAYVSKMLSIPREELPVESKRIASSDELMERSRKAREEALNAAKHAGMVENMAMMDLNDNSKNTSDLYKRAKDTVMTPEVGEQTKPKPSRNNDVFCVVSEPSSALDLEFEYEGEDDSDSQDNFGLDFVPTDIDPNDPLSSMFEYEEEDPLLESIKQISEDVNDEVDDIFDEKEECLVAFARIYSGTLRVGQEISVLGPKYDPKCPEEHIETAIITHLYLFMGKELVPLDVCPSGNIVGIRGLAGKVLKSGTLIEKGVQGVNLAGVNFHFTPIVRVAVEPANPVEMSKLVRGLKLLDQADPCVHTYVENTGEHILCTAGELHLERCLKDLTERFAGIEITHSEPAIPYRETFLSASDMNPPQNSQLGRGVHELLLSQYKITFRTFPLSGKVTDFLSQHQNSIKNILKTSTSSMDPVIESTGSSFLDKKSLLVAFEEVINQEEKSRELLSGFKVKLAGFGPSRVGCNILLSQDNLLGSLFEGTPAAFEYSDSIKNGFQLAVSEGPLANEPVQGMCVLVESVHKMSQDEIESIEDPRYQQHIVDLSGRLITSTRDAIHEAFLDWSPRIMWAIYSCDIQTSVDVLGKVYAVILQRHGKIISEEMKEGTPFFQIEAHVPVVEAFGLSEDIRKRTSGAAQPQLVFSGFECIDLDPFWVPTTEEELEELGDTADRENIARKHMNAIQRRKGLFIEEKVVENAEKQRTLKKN
structure (smiles),measurement,setting,value
Nc1nc2c(ncn2[C@@H]2O[C@H](COP(=O)(O)OP(=O)(O)OP(=O)(O)O)[C@@H](O)[C@H]2O)c(=O)[nH]1 [GTP],"Nconfres (number of residues changing conformation, absolute value)","+Mg^2+, 30 °C",3
same,"Nconfrotb (number of routable bonds changing conformation, absolute value)","+Mg^2+, 30 °C",21
same,ΔCpconf,"+Mg^2+, 30 °C",35 cal mol^−1 K^−1
same,ΔSb,"+Mg^2+, 30 °C",25 cal mol^−1 K^−1
same,ΔSconf,"+Mg^2+, 30 °C",36 cal mol^−1 K^−1
same,ΔSsolv,"+Mg^2+, 30 °C",−2 cal mol^−1 K^−1
same,−ΔASAconf,"+Mg^2+, 30 °C",−157 Å^2
same,-TΔs,[1],0.5 kcal/mol
same,Δg,[1],-0.1 kcal/mol
same,Δh,[1],-0.56 kcal/mol
same,κ (heterotropic cooperativity),[1],1.0
same,-TΔs,[2],1.2 kcal/mol
same,Δg,[2],0.6 kcal/mol
same,Δh,[2],-0.63 kcal/mol
same,κ (heterotropic cooperativity),[2],0.4
same,-TΔs,[3],1.3 kcal/mol
same,Δg,[3],0.5 kcal/mol
same,Δh,[3],-0.78 kcal/mol
same,κ (heterotropic cooperativity),[3],0.4
same,-TΔs,[4],2.5 kcal/mol
same,Δg,[4],0.3 kcal/mol
same,Δh,[4],-2.1 kcal/mol
same,κ (heterotropic cooperativity),[4],0.6
same,-TΔs,[5],4.8 kcal/mol
same,Δg,[5],0.7 kcal/mol
same,Δh,[5],-4.1 kcal/mol
same,κ (heterotropic cooperativity),[5],0.3
same,-TΔs,[6],7.1 kcal/mol
same,Δg,[6],0.9 kcal/mol
same,Δh,[6],-6.2 kcal/mol
same,κ (heterotropic cooperativity),[6],0.3
same,-TΔs,[7],5.6 kcal/mol
same,Δg,[7],0.0 kcal/mol
same,Δh,[7],-5.6 kcal/mol
same,κ (heterotropic cooperativity),[7],1.0
same,-TΔs,[8],6.3 kcal/mol
same,Δg,[8],0.7 kcal/mol
same,Δh,[8],-5.6 kcal/mol
same,κ (heterotropic cooperativity),[8],0.3
same,-TΔs,[9],6.5 kcal/mol
same,Δg,[9],0.9 kcal/mol
same,Δh,[9],-5.6 kcal/mol
same,κ (heterotropic cooperativity),[9],0.2
same,Kd,"+Mg^2+, 25 °C",16 ± 2 µM
same,Kd,"+Mg^2+, 30 °C",16 ± 3 µM
same,Kd,"+Mg^2+, 35 °C",13 ± 2 µM
same,Kd,"−Mg^2+, 25 °C",17 ± 5 µM
same,Kd,"−Mg^2+, 30 °C",6 ± 1 µM
same,Kd,"−Mg^2+, 35 °C",6 ± 1 µM
same,-TΔSb,"+Mg^2+, 25 °C",-7.57 kcal/mol
same,ΔGb,"+Mg^2+, 25 °C",-6.53 kcal/mol
same,ΔHb,"+Mg^2+, 25 °C",1.04 ± 0.05 kcal/mol
same,-TΔSb,"+Mg^2+, 30 °C",-7.74 kcal/mol
same,ΔGb,"+Mg^2+, 30 °C",-6.67 kcal/mol
same,ΔHb,"+Mg^2+, 30 °C",1.07 ± 0.03 kcal/mol
same,-TΔSb,"+Mg^2+, 35 °C",-8.0 kcal/mol
same,ΔGb,"+Mg^2+, 35 °C",-6.88 kcal/mol
same,ΔHb,"+Mg^2+, 35 °C",1.12 ± 0.06 kcal/mol
same,ΔCpb,+Mg^2+,10 ± 2 cal mol^−1 K^−1 and 10 cal mol^−1 K^−1
same,-TΔSb,"−Mg^2+, 25 °C",-8.12 kcal/mol
same,ΔGb,"−Mg^2+, 25 °C",-6.52 kcal/mol
same,ΔHb,"−Mg^2+, 25 °C",1.6 ± 0.3 kcal/mol
same,-TΔSb,"−Mg^2+, 30 °C",-8.90 kcal/mol
same,ΔGb,"−Mg^2+, 30 °C",-7.20 kcal/mol
same,ΔHb,"−Mg^2+, 30 °C",1.7 ± 0.1 kcal/mol
same,-TΔSb,"−Mg^2+, 35 °C",-9.30 kcal/mol
same,ΔGb,"−Mg^2+, 35 °C",-7.40 kcal/mol
same,ΔHb,"−Mg^2+, 35 °C",1.9 ± 0.1 kcal/mol
same,ΔCpb,−Mg^2+,30 cal mol^−1 K^−1 and 30 ± 6 cal mol^−1 K^−1
same,overall heat-capacity change to drive the protein into ternary complex GTPase•GTP•Sdo1,mutant Efl1,−410 cal mol^−1 K^−1
same,"Nconfres (number of residues changing conformation, absolute value)","−Mg^2+, 30 °C",4
same,"Nconfrotb (number of routable bonds changing conformation, absolute value)","−Mg^2+, 30 °C",27
same,ΔCpconf,"−Mg^2+, 30 °C",41 cal mol^−1 K^−1
same,ΔSb,"−Mg^2+, 30 °C",29 cal mol^−1 K^−1
same,ΔSconf,"−Mg^2+, 30 °C",44 cal mol^−1 K^−1
same,ΔSsolv,"−Mg^2+, 30 °C",−7 cal mol^−1 K^−1
same,−ΔASAconf,"−Mg^2+, 30 °C",−184 Å^2

# From PMC9405973, “Altered Conformational Landscape upon Sensing Guanine Nucleotides in a Disease Mutant of Elongation Factor-like 1 (EFL1) GTPase” (Biomolecules, 2022)
